{"source": "paper PMC6754302", "about": "(Cell chemical biology, 2019)", "key": {"C6": {"biological_target": "T1, C6 (Homo sapiens, UniProt P55212)", "T1 sequence (P55212 24-293)": "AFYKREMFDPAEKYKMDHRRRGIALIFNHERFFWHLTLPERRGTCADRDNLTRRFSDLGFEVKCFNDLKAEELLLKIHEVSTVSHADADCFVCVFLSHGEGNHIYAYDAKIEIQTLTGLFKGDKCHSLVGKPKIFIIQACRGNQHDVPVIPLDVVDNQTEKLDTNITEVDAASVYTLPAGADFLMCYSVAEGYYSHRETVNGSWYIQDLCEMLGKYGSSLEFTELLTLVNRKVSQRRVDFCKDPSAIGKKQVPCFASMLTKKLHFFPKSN", "format": "cell-based", "details": "for intracellular C6-mediated cleavage of HTT1–1212 (HTT1–586 fragment): COS-7 cells co-transfected with C6 and HTT1–1212, compound in the media"}, "caspase-6 (C6) [1]": {"biological_target": "T2, caspase-6 (C6) (Homo sapiens, UniProt P55212)", "T2 sequence (P55212 24-179 limits assumed)": "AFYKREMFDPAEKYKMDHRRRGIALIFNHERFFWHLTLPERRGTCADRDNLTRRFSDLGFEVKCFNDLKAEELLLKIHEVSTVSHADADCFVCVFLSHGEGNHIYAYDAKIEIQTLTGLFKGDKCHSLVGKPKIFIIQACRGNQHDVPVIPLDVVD", "T2 sequence (P55212 194-293 limits assumed)": "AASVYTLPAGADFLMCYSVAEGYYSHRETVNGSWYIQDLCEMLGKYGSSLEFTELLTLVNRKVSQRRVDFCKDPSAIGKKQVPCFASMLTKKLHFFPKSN", "test": "C6 activity assay using the VEID-AFC peptide as a substrate", "format": "biochemical"}, "Recombinant C6 enzyme [2]": {"biological_target": "T3, Recombinant C6 enzyme (Homo sapiens, UniProt P55212)", "T3 sequence (P55212 24-179 limits assumed)": "T2 sequence (P55212 24-179 limits assumed)", "T3 sequence (P55212 194-293 limits assumed)": "T2 sequence (P55212 194-293 limits assumed)", "test": "Washout experiment", "format": "biochemical", "details": "read-out: inhibition of C6 activity after washout"}, "[3]": {"biological_target": "T4, intracellular C6 activity (Homo sapiens, UniProt P55212)", "T4 sequence (P55212 24-293)": "T1 sequence (P55212 24-293)", "test": "Intracellular lamin A cleavage ELISA", "format": "cell-based"}, "caspase-6 (C6) [4]": {"biological_target": "T2, caspase-6 (C6)", "test": "TR-FRET-based C6 activity assay with HTT1–1212 as substrate", "format": "biochemical", "details": "for shift of dose-response curve with pre-incubation time: 0 min vs 60 min pre-incubation of C6 with compound"}, "pro-C6 (C6 zymogen) [5]": {"tested_on": "pro-C6 (C6 zymogen)", "test": "LE22 labelling of C6 in lysates of transfected COS-7 cells", "format": "cell-based, human", "details": "10 μM in the culture medium, co-transfection with mHTT1–586"}, "pro-C6 (C6 zymogen) [6]": {"biological_target": "T5, pro-C6 (C6 zymogen) (Homo sapiens, UniProt P55212)", "T5 sequence (P55212 1-293)": "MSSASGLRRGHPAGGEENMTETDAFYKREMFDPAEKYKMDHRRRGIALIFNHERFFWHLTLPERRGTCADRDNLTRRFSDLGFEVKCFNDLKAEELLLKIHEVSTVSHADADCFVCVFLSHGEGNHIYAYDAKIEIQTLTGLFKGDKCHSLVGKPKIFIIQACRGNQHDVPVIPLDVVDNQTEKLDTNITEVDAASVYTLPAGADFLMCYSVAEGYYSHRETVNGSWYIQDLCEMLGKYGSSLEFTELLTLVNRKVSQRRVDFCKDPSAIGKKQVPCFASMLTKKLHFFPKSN", "test": "LE22 labelling of C6 in lysates of transfected COS-7 cells", "format": "cell-based"}, "Recombinant C6 enzyme [7]": {"biological_target": "T3, Recombinant C6 enzyme", "details": "10 μM inhibitor"}, "C6-HTT interaction": {"biological_target": "T6, C6-HTT interaction (Homo sapiens, UniProt P55212)", "T6 sequence (P55212 24-293)": "T1 sequence (P55212 24-293)", "test": "Co-immunoprecipitation of HTT with DDK-tagged C6 from co-transfected COS-7 cells", "format": "cell-based"}}, "note": "“Also recorded” adds a separate entry of the source."}
{"compound": "O=c1oc(C#Cc2ccccc2)nc(O)c1Cc1ccccc1", "note": "[PG3d, 5-Benzyl-4-hydroxy-2-(phenylethynyl)-6H-1,3-oxazin-6-one]", "values": [{"measurement": "intracellular C6-mediated cleavage of HTT1–1212 (HTT1–586 fragment)", "setting": "C6", "result": "inhibited"}, {"measurement": "inhibitory effect on C6-mediated cleavage of small peptide substrates (VEID-AFC)", "setting": "caspase-6 (C6) [1]", "result": "minimal inhibitory effect"}, {"measurement": "inhibition at 10 µM", "setting": "Recombinant C6 enzyme [2]", "result": 100, "unit": "%"}, {"measurement": "inhibition of lamin A proteolysis", "setting": "[3]", "result": "strong inhibition"}, {"measurement": "inhibition of HTT proteolysis", "setting": "caspase-6 (C6) [4]", "result": "strong inhibition"}, {"measurement": "shift of dose-response curve with pre-incubation time", "setting": "caspase-6 (C6) [4]", "result": "shift towards a lower IC50 value"}, {"measurement": "LE22 labelling for deltaPro and D23A C6", "setting": "pro-C6 (C6 zymogen) [5]", "result": "normalized the amount of LE22 labelling"}, {"measurement": "mHTT1–586-induced increase of LE22 binding to pro-C6 (C6wt)", "setting": "pro-C6 (C6 zymogen) [6]; 10 μM in the culture medium, co-transfection with mHTT1–586", "result": "completely reversed"}, {"measurement": "LE22 labelling of C6 after inhibitor pre-incubation", "setting": "Recombinant C6 enzyme [7]", "result": "did not block accessibility of the active site"}, {"measurement": "reduction in HTT co-immunoprecipitation", "setting": "C6-HTT interaction; PG3d 10 μM in the media, mHTT1–1212", "result": 50, "unit": "%"}]}
{"compound": "CC(C)[C@H](NC(=O)c1ccc2ccccc2n1)C(=O)N[C@@H](CC(=O)O)C(=O)COc1c(F)cccc1F", "note": "[Q-VD-OPh]", "values": [{"measurement": "intracellular generation of active C6 subunits (p18)", "setting": "C6; COS-7 cells co-transfected with C6 and HTT1–1212, Q-VD-OPh 3 μM", "result": "reduces the intracellular generation of active C6 subunits"}, {"measurement": "intracellular C6-mediated cleavage of HTT1–1212 (HTT1–586 fragment)", "setting": "C6", "result": "lowers HTT1–586 fragment levels"}, {"measurement": "proportion of pro-C6 and p18-C6 labelled with LE22", "setting": "pro-C6 (C6 zymogen) [6]; C6-transfected cells treated with Q-VD-OPh prior to lysis", "result": "decreased"}, {"measurement": "effect on co-immunoprecipitation of HTT with C6", "setting": "C6-HTT interaction; Q-VD-OPh 3 μM", "result": "not prevented; also recorded: no significant difference"}]}
{"compound": "zVAD-fmk", "values": [{"measurement": "LE22 labelling of C6 after inhibitor pre-incubation", "setting": "Recombinant C6 enzyme [7]", "result": "prevented labelling of C6 with LE22"}]}
{"compound": "VDVAD-CHO [reference compound]", "values": [{"measurement": "shift of dose-response curve with pre-incubation time", "setting": "caspase-6 (C6) [4]", "result": "did not exhibit time-dependent behaviour"}, {"measurement": "LE22 labelling of C6 after inhibitor pre-incubation", "setting": "Recombinant C6 enzyme [7]", "result": "is replaced by the irreversible binding of the LE22 probe"}]}
